Reference: US20250195530A1, “POLQ INHIBITORS” (ASTRAZENECA AB, priority 2022, published 2025)
Where two headings read alike, the source gives them in different places.

Tested on: DLD-1 BRCA2−/− cells
Test: Homologous recombination synthetic lethal inhibition of proliferation, DLD-1 BRCA2-/- (Cell Titre Glo 3D)
Type: cell-based
Conditions: for IC50: Homo sapiens
Source text: This assay identifies anti-proliferative effects of POLQ compounds in the homologous recombination deficient colorectal cell line DLD-1 BRCA2−/− over 8-9 population doublings (7 days for DLD-1 and 12 days for DLD-1 BRCA2−/−). DLD1 BRCA2 wt are used as a control to detect cell toxic effects not specific to homologous recombination deficiency.
DLD-1 BRCA2−/− and DLD-1 cells were kept in continuous culture in Assay Medium (RPMI 1640 phenol red free (Sigma R7509) containing 1% GlutaMAX (Gibco 35050) and 10% Foetal Bovine Serum (Gibco 10270-106)). On the day of the assay cells in culture of ˜80-90% confluent were used. Cell monolayers were washed with 10 mL PBS, then removed and added 2 mL TrypLE Express (Gibco 12604). The cells with TrypLE Express were incubated for 5 minutes in cell culture incubator and then the detached cells resuspend in 15 mL Assay Medium. Cells were counted using a ViCell and the cell images were monitored for clumps of cells, ideally they should be single or <3 cell clusters. The cells were diluted to 3,000 cells/mL of DLD-1 BRCA2−/− and 1,500 cells/mL of DLD-1 in Assay Medium and 100 μL added per well of transparent bottomed, black, tissue culture-treated 96-well plates (CoStar, No. 3904) Assay Ready Plates. The Assay Ready Plates contain a 10 point 10 μM to 0.51 nM dose range with three-fold dilutions in DMSO with a final volume of 100 nL. The plates were incubated at 37° C. with 5% C02 for 6 days. On day 6, 100 μL/well of Assay Medium was added to duplicate Assay Ready Plates. 90 μL of culture medium was removed from the cell plates and replenished with the Assay Media and compounds from the duplicate Assay Ready Plates using the Bravo. The plates were further incubated at 37° C. with 5% CO2. On day 7 the plates containing DLD-1 and Cell Titre Glo 3D (Promega G9683) were equilibrated to room temperature, then 60 μL of Cell Titre Glo 3D was added per well and incubated on a shaking platform for 30 min. Plates were read on the Envision measuring luminescence for 1 second per well. On day 12 the plates containing DLD-1 BRCA2−/− cells and Cell Titre Glo 3D (Promega G9683) were equilibrated to room temperature, then 60 μL Cell Titre Glo 3D added per well and incubated on a shaking platform for 30 min. Plates were read on the Envision measuring luminescence for 1 second per well. The data was exported into a suitable software package (such as Genedata) to perform curve fitting analysis. Inhibition of cell proliferation was expressed as an IC5o value and was determined by calculation of the concentration of compound that was required to give a 50% reduction of the average maximum Total Intensity signal.

[1] = DLD-1, first proliferation column (c5), DLD-1 BRCA2-/-, read-out: POLQ PD Prolif Lumin (converted)
[2] = DLD-1, first proliferation column (c5), taken as DLD-1 BRCA2-/-, read-out: POLQ PD Prolif Lumin (converted)
[3] = DLD-1, DLD-1 BRCA2 −/− cells, mean, read-out: POLQ PD Prolif Lumin BRCA2 −/− mean pIC50 (converted)
[4] = DLD-1, first proliferation column, DLD-1 BRCA2-/-, read-out: POLQ PD Prolif Lumin (converted)
[5] = DLD-1, proliferation, luminescence, taken as DLD-1 BRCA2-/-, read-out: POLQ PD Prolif Lumin (converted)
[6] = DLD-1, DLD-1 BRCA2-/- proliferation, column head only partly shown, read-out: POLQ PD Prolif Lumin (converted)

Cc1ccnc(Cn2c(-c3ccc(C4CNC(=O)C4)cc3Cl)nc3c(OC4(C)CC4)ncnc32)c1 (single isomer, unassigned) [Example T174, 4-(3-chloro-4-(6-(1-methylcyclopropoxy)-9-((4-methylpyridin-2-yl)methyl)-9H-purin-8-yl)phenyl)pyrrolidin-2-one]
IC50 [1]: 501 nM

Cc1ccnc(Cn2c(-c3ccc(OCC(=O)N(C)CCO)cc3Cl)nc3c(OC4(C)CC4)ncnc32)c1 [Example T374, 2-(3-chloro-4-(6-(1-methylcyclopropoxy)-9-((4-methylpyridin-2-yl)methyl)-9H-purin-8-yl)phenoxy)-N-(2-hydroxyethyl)-N-methylacetamide]
IC50 [2]: 1260 nM

Cc1ccnc(Cn2c(-c3ccc(OCC(C)(C)CO)cc3Cl)nc3c(OC4(C)CC4)ncnc32)c1 [Example T383, 3-(3-chloro-4-(6-(1-methylcyclopropoxy)-9-((4-methylpyridin-2-yl)methyl)-9H-purin-8-yl)phenoxy)-2,2-dimethylpropan-1-ol]
IC50 [2]: 126 nM

CC1(Oc2ncnc3c2nc(-c2ccc(CC(N)=O)cc2Cl)n3Cc2ccnc(C#N)c2)CC1 [Example T40, 2-(3-chloro-4-(9-((2-cyanopyridin-4-yl)methyl)-6-(1-methylcyclopropoxy)-9H-purin-8-yl)phenyl)acetamide]
IC50 [3]: 5010 nM

CC1(Oc2ncnc3c2nc(-c2ccc(CC(N)=O)cc2Cl)n3Cc2ccnc(C(F)(F)F)c2)CC1 [Example T35, 2-(3-chloro-4-(6-(1-methylcyclopropoxy)-9-((2-(trifluoromethyl)pyridin-4-yl)methyl)-9H-purin-8-yl)phenyl)acetamide]
IC50 [3]: 2510 nM

CC[C@@H](O)CNC(=O)COc1ccc(-c2nc3c(OC4(C)CC4)ncnc3n2Cc2cc(C)ccn2)c(Cl)c1 [Example T520, (R)-2-(3-chloro-4-(6-(1-methylcyclopropoxy)-9-((4-methylpyridin-2-yl)methyl)-9H-purin-8-yl)phenoxy)-N-(2-hydroxybutyl)acetamide]
IC50 [1]: 398 nM

Cc1ccnc(Cn2c(-c3ccc(OCC(=O)N4CCC[C@H]4CO)cc3Cl)nc3c(OC4(C)CC4)ncnc32)c1 [Example T576, (S)-2-(3-chloro-4-(6-(1-methylcyclopropoxy)-9-((4-methylpyridin-2-yl)methyl)-9H-purin-8-yl)phenoxy)-1-(2-(hydroxymethyl)pyrrolidin-1-yl)ethan-1-one]
IC50 [4]: 501 nM

CC(CCOc1ccc(-c2nc3c(OC4(C)CC4)ncnc3n2Cc2cccc(F)c2F)c(Cl)c1)C(=O)O (single isomer, unassigned) [Example T262, 4-(3-chloro-4-(9-(2,3-difluorobenzyl)-6-(1-methylcyclopropoxy)-9H-purin-8-yl)phenoxy)-2-methylbutanoic acid]
POLQ PD Prolif Lumin (DLD-1 BRCA2-/- proliferation, column head only partly shown): 6.3

Cc1ccnc(Cn2c(-c3ccc(OCC(F)(F)CO)cc3Cl)nc3c(OC4(C)CC4)ncnc32)c1 [Example T98, 3-(3-chloro-4-(6-(1-methylcyclopropoxy)-9-((4-methylpyridin-2-yl)methyl)-9H-purin-8-yl)phenoxy)-2,2-difluoropropan-1-ol]
IC50 [3]: 100 nM

Cc1ccnc(Cn2c(-c3ccc(OC4CC5(COC5)C4)cc3Cl)nc3c(OC4(C)CC4)ncnc32)c1 [Example T426, 8-(4-((2-oxaspiro[3.3]heptan-6-yl)oxy)-2-chlorophenyl)-6-(1-methylcyclopropoxy)-9-((4-methylpyridin-2-yl)methyl)-9H-purine]
IC50 [5]: 100 nM

CC(CCOc1ccc(-c2nc3c(OC4(C)CC4)ncnc3n2Cc2ccc(F)c(Cl)c2)c(Cl)c1)C(=O)O (racemic) [Example T269, 4-(3-chloro-4-(9-(3-chloro-4-fluorobenzyl)-6-(1-methylcyclopropoxy)-9H-purin-8-yl)phenoxy)-2-methylbutanoic acid]
IC50 [6]: 1260 nM

CC1(Oc2ncnc3c2nc(-c2ccc(CC(N)=O)cc2Cl)n3Cc2nc(C3CC3)no2)CC1 [Example T23, 2-(3-chloro-4-(9-((3-cyclopropyl-1,2,4-oxadiazol-5-yl)methyl)-6-(1-methylcyclopropoxy)-9H-purin-8-yl)phenyl)acetamide]
IC50 [3]: 1260 nM

Cc1ccnc(Cn2c(-c3ccc(OCCN4CCN(C)CC4)cc3Cl)nc3c(OC(C)(C)C)nccc32)c1 [Example T610, 4-(tert-butoxy)-2-(2-chloro-4-(2-(4-methylpiperazin-1-yl)ethoxy)phenyl)-1-((4-methylpyridin-2-yl)methyl)-1H-imidazo[4,5-c]pyridine]
IC50 [4]: > 7940 nM

CC1(Oc2ncnc3c2nc(-c2ccc(OCCN4CCNCC4)cc2Cl)n3CCc2ccncc2)CC1 [Example L1, 8-(2-chloro-4-(2-(piperazin-1-yl)ethoxy)phenyl)-6-(1-methylcyclopropoxy)-9-(2-(pyridin-4-yl)ethyl)-9H-purine]
IC50 (DLD-1, 288 h, DLD-1 BRCA2−/− cells, 12 days, read-out: POLQ PD Prolif Lumin BRCA2 −/− mean pIC50 (converted)): > 10000 nM

Cc1ccnc(Cn2c(-c3ccc(OC(C)CO)cc3Cl)nc3c(OC4(C)CC4)ncnc32)c1 (single isomer, unassigned) [Example T127, 2-(3-chloro-4-(6-(1-methylcyclopropoxy)-9-((4-methylpyridin-2-yl)methyl)-9H-purin-8-yl)phenoxy)propan-1-ol]
IC50 [1]: 251 nM

CC1(Oc2ncnc3c2nc(-c2cccc(OCCCC(C)(C)C(=O)O)c2Cl)n3Cc2cccc(Cl)c2)CC1 [Example T565, 5-(2-chloro-3-(9-(3-chlorobenzyl)-6-(1-methylcyclopropoxy)-9H-purin-8-yl)phenoxy)-2,2-dimethylpentanoic acid]
IC50 [1]: 100 nM

Cc1cc(OCCCN(C)C)ccc1-c1nc2c(OC3(C)CC3)ncnc2n1Cc1cc(Cl)ccn1 [Example T387, 3-(4-(9-((4-chloropyridin-2-yl)methyl)-6-(1-methylcyclopropoxy)-9H-purin-8-yl)-3-methylphenoxy)-N,N-dimethylpropan-1-amine]
IC50 [2]: 158 nM

CC1(Oc2ncnc3c2nc(-c2ccc(CC(N)=O)cc2Cl)n3Cc2cc(F)ccc2C#N)CC1 [Example T79, 2-(3-chloro-4-(9-(2-cyano-5-fluorobenzyl)-6-(1-methylcyclopropoxy)-9H-purin-8-yl)phenyl)acetamide]
IC50 [3]: 158 nM

C/C(=C\COc1ccc(-c2nc3c(OC4(C)CC4)ncnc3n2Cc2cccc(Cl)c2)c(Cl)c1)C(=O)O [Example T255, (E)-4-(3-chloro-4-(9-(3-chlorobenzyl)-6-(1-methylcyclopropoxy)-9H-purin-8-yl)phenoxy)-2-methylbut-2-enoic acid]
IC50 [6]: 316 nM

Cc1ccnc(Cn2c(-c3ccc(OCC(=O)N4C[C@@H](O)[C@H](F)C4)cc3Cl)nc3c(OC4(C)CC4)ncnc32)c1 [Example T423, 2-(3-chloro-4-(6-(1-methylcyclopropoxy)-9-((4-methylpyridin-2-yl)methyl)-9H-purin-8-yl)phenoxy)-1-((3R,4R)-3-fluoro-4-hydroxypyrrolidin-1-yl)ethan-1-one]
IC50 [5]: 1000 nM

Cc1ccnc(Cn2c(-c3ccc(C(=O)NCC(F)F)cc3Cl)nc3c(OC4(C)CC4)ncnc32)c1 [Example T93, 3-chloro-N-(2,2-difluoroethyl)-4-(6-(1-methylcyclopropoxy)-9-((4-methylpyridin-2-yl)methyl)-9H-purin-8-yl)benzamide]
IC50 [3]: 316 nM

Cc1ccnc(Cn2c(-c3ccc(CC(=O)N4C5CNCC4C5)cc3Cl)nc3c(OC4(C)CC4)ncnc32)c1 [Example T557, 1-(3,6-diazabicyclo[3.1.1]heptan-6-yl)-2-(3-chloro-4-(6-(1-methylcyclopropoxy)-9-((4-methylpyridin-2-yl)methyl)-9H-purin-8-yl)phenyl)ethan-1-one]
IC50 [1]: 6310 nM

Cc1ccnc(Cn2c(-c3ccc(N4CCC5NCCC54)cc3Cl)nc3c(OC4(C)CC4)ncnc32)c1 (centres unmarked) [Example T492, 8-(2-chloro-4-(hexahydropyrrolo[3,2-b]pyrrol-1(2H)-yl)phenyl)-6-(1-methylcyclopropoxy)-9-((4-methylpyridin-2-yl)methyl)-9H-purine]
IC50 [1]: 398 nM
